“And” between values parts separate entries of the source, which are not always exact repeats. Equal values may be shown once.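 Following 48 hours of exposure in 96-well plates, responses at five concentrations were used to interpolate endpoints linearly. GI50 marks 50% less growth. TGI is the concentration that stops growth completely.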
Key:
Test in all cases: NCI-60 cell line screen, 48 h
[1] = system: HL-60(TB) leukemia
[2] = system: OVCAR-5 ovarian
[3] = system: SK-MEL-5 melanoma
[4] = system: SN12C renal
[5] = system: NCI-H460 lung
[6] = system: DU-145 prostate
[7] = system: HCC-2998 colon
[8] = system: HCT-15 colon
[9] = system: OVCAR-4 ovarian
[10] = system: SK-MEL-2 melanoma

| SMILES | GI50 [1] | GI50 [2] | TGI [2] | TGI [3] | TGI [4] | GI50 [5] | TGI [5] | TGI [6] | GI50 [7] | TGI [7] | GI50 [8] | TGI [8] | GI50 [9] | TGI [9] | TGI [1] | TGI [10] | GI50 [3] | GI50 [4] | GI50 [6] | GI50 [10] |
| --- | --- | --- | --- | --- | --- | --- | --- | --- | --- | --- | --- | --- | --- | --- | --- | --- | --- | --- | --- | --- |
| CCc1c2c(nc3cc4c(cc13)OCO4)-c1cc3c(c(=O)n1C2)COC(=O)[C@]3(O)CC | < 0.001 µM | 0.885 µM and 0.313 µM | 2.27 µM | 0.0648 µM and 0.143 µM | > 100 µM | < 0.001 µM | 1.09 µM and 0.617 µM | > 100 µM | 0.0443 µM and 0.361 µM | > 100 µM | 0.182 µM and 0.137 µM | > 100 µM | 0.323 µM and 1.27 µM | > 100 µM |  |  |  |  |  |  |
| O=c1[nH]c2ccccc2cc1C(Cl)=C(Cl)Cl |  |  | > 100 µM |  | > 100 µM |  | > 100 µM |  |  | > 100 µM |  |  |  | > 100 µM | > 100 µM | > 100 µM |  |  |  |  |
| Cc1nn(-c2ccc(S(=O)(=O)[O-])cc2)c([O-])c1N=[N+](C)c1ccc(-c2ccc(N=Nc3ccc4c(S(=O)(=O)[O-])cc(S(=O)(=O)[O-])c(N)c4c3[O-])c([O-])c2)cc1[O-].[Cu+2].[Cu+2].[Na+] |  | > 100 µM | > 100 µM | > 100 µM | > 100 µM | > 100 µM | > 100 µM | > 100 µM | > 100 µM | > 100 µM | > 100 µM | > 100 µM | > 100 µM | > 100 µM |  | > 100 µM | > 100 µM | > 100 µM | > 100 µM | > 100 µM |
| CCOC(=O)CC1=Nc2ccccc2SC1 |  |  | > 100 µM | > 100 µM | > 100 µM |  | > 100 µM |  |  | > 100 µM |  | > 100 µM |  | > 100 µM |  | > 100 µM |  |  |  |  |
| COc1cc2c(c3c1C=CCO3)C(=O)c1ccccc1C2=O |  |  | > 100 µM | 78.6 µM | > 100 µM |  | > 100 µM |  |  | > 100 µM |  | > 100 µM |  |  | 57.7 µM | > 100 µM |  |  |  |  |
| C=CCSC[C@H](NC(=O)COc1ccccc1)C(=O)NC(C(=O)OCc1ccc([N+](=O)[O-])cc1)=C(C)C |  |  |  | > 100 µM | > 100 µM |  | > 100 µM |  |  | > 100 µM |  | > 100 µM |  | > 100 µM | > 100 µM | > 100 µM |  |  |  |  |
| C=C1C(O)C2CCC(C)(C)C(=O)C2=C(CC(C)C)C12CC2 (configuration not stated) |  | > 100 µM | > 100 µM | > 100 µM | > 100 µM | 32.8 µM | > 100 µM | > 100 µM | 16.6 µM | 65.8 µM | 54.4 µM | > 100 µM | > 100 µM | > 100 µM |  | > 100 µM | 24.8 µM | 63.8 µM | 84.9 µM | > 100 µM |
| C=CC1=CSNN1 |  |  | > 100 µM | > 100 µM | > 100 µM |  | > 100 µM |  |  | > 100 µM |  | > 100 µM |  | > 100 µM | > 100 µM | > 100 µM |  |  |  |  |
| COC(=O)C1OC(O[C@H]2CCC3(C)C(CCC4(C)C3CC=C3C5CC(C)(C)CCC5(C(=O)O)CC[C@]34C)C2(C)C)C(O)C(OC2OC(CO)C(O)C(O)C2O)C1O (some centres not stated) | 6.92 µM | 7.31 µM | 13.5 µM | 11.4 µM | 11.4 µM | 11.5 µM | > 33.3 µM |  | 7.14 µM | 12.4 µM | 6.57 µM | 13.2 µM |  |  | 18.2 µM | > 33.3 µM | 6.14 µM | 6.34 µM |  | 11.9 µM |
| Cn1cc(NC(=O)c2cc(NC(=O)CCCCCCCCCCC(=O)Nc3cc(C(=O)Nc4cc(C(=O)NCCC(=N)N)n(C)c4)n(C)c3)cn2C)cc1C(=O)NCCC(=N)N |  |  | > 100 µM | 87.8 µM | > 100 µM |  | > 100 µM |  |  | 73.6 µM |  | > 100 µM |  | > 100 µM |  | > 100 µM |  |  |  |  |
| CSC1=NC=CCN1C |  |  | > 100 µM | > 100 µM | > 100 µM |  | > 100 µM |  |  | > 100 µM |  | > 100 µM |  | > 100 µM | > 100 µM | > 100 µM |  |  |  |  |
| CC(=O)c1ccc(Nc2cc(-c3ccccc3)nc3c(O)cccc23)cc1 | 3.13 µM | 54.5 µM | > 100 µM | 26.7 µM | 58.2 µM |  |  | > 100 µM | 13.7 µM | 36.7 µM | 8.31 µM | > 100 µM | 18.2 µM | 64.7 µM | 30.6 µM | 40.4 µM | 13 µM | 24.7 µM | 21.8 µM | 13.2 µM |
| CCCCCCCCCCCCCCCC(=O)NCC(COP(=O)([O-])OCC[N+](C)(C)C)OCC (configuration not stated) |  |  | 22 µM | 33.9 µM | 25 µM |  | 7.28 µM |  |  | 3.1 µM |  | 19.3 µM |  | 17.7 µM |  |  |  |  |  |  |
| C1COCCN1.C1COCCN1.N.N.[Cl-].[Pt+2] |  | > 100 µM | > 100 µM | > 100 µM | > 100 µM | > 100 µM | > 100 µM |  | > 100 µM | > 100 µM | > 100 µM | > 100 µM | > 100 µM | > 100 µM |  | > 100 µM | > 100 µM | > 100 µM |  | > 100 µM |
| COc1ccc(/C=C/C=C(/C#N)C(N)=S)cc1 | 26 µM | 34.3 µM | 95.8 µM | 36.4 µM | > 100 µM | 23.7 µM | 65.9 µM | > 100 µM |  |  | 25.4 µM | 82.8 µM | 27.9 µM | > 100 µM | > 100 µM | 67.7 µM | 18.3 µM | 35.4 µM | 32.7 µM | 25.2 µM |
| CCCCCCCCCCCCC(=O)OC(c1cnco1)c1nc(C(O)CC(O)C(O)C(C)O)co1 (configuration not stated) | 0.544 µM |  | > 100 µM | 9.66 µM and 6.95 µM | > 100 µM | 0.443 µM | > 37 µM |  | 1.68 µM | > 100 µM |  | > 100 µM | 2.02 µM | 91.5 µM | 25.4 µM | > 66 µM | 1.45 µM | 4.09 µM |  | 4.79 µM |
| N#CC1(c2nc3ccccc3o2)C(=O)C(=O)N(C2C3CC4CC(C3)CC2C4)C(=O)C1=O (configuration not stated) |  |  | > 100 µM | > 100 µM | > 100 µM |  | > 100 µM |  |  | > 100 µM |  | > 100 µM |  | > 100 µM | > 100 µM | > 100 µM |  |  |  |  |
